In ChEMBL document CHEMBL3351622, “Synthesis and evaluation of 9-deoxy analogues of (-)-thysanone, an inhibitor of HRV 3C protease” (Eur J Med Chem, 2014):

Columns and labels:
[1] = Inhibition of human rhinovirus 3C protease incubated for 1 hr by solid phase fluorescent assay; design: species or system Human rhinovirus sp.
[2] = Inhibition of human rhinovirus 3C protease; design: species or system Human rhinovirus sp.

| IC50 [1] | IC50 [2] | SMILES |
| --- | --- | --- |
| 51.8 µM | 47 µM | C[C@H]1CC2=C(C(=O)c3c(O)cc(O)cc3C2=O)[C@H](O)O1 |
| 20.3 µM | – | C[C@H]1CC2=C(C(=O)c3ccc(O)cc3C2=O)[C@H](O)O1 (racemic) |
| 30.9 µM | – | C[C@H]1CC2=C(CO1)C(=O)c1ccc(O)cc1C2=O (racemic) |
| 35.7 µM | – | CC(C)Oc1ccc2c(c1)C(=O)C1=C(CO[C@@H](C)C1)C2=O (racemic) |
